Data from US20110136880A1, “Latrunculin-Based Macrolides and Their Uses” (priority 2009, published 2011).
Read-outs that look alike come from different tables or passages of the source.

How the values were obtained:
pyrene-conjugated actin = molecular target: T1, pyrene-conjugated actin (Oryctolagus cuniculus, UniProt P68135); assay: Pyrene actin polymerization assay; assay type: biochemical; conditions: for IC50: mean ± SEM, triplicate; for inhibition at 0.1 µM: read-out: Actin polymerization inhibition (%) 100 nM; for inhibition at 1 µM: read-out: Actin polymerization inhibition (%) 1 μM
T1 construct: purchased Cytoskeleton, Denver, Colo
Method: An actin polymerization kit was used to assess the direct actin-binding activity of each analogue at two concentrations: 100 nM and 1 μM. This kit is based on the enhanced fluorescence of pyrene-conjugated actin that occurs during polymerization. When pyrene-G-actin (monomer) forms pyrene-F-actin, fluorescence is enhanced. The enhanced fluorescence is used to follow polymerization over time. Table 2 lists activities as the percentage of actin polymerization inhibition, compared to the negative vehicle control (DMSO), along with calculated IC50.
Pyrene-Actin Polymerization Assays. Actin polymerization assays were performed in accordance with the manufacturer's instructions (Cytoskeleton, Denver, Colo.). Briefly, […] final concentration of monomeric actin (1:10 pyrene labeled) was incubated on ice for 10 min with one of various concentrations of one of the latrunculin derivatives. Samples were then equilibrated 10 min in an ELISA plate reader (BioTek, VT), after which polymerization was induced by adding KCl, MgCl2, and ATP. Compounds 1-14 were tested at 0.1, 0.5, 1.0, and 10 μM. The IC50 for each compound was calculated using GraphPad Prism 5.0.
Pyrene-actin polymerization assays. Actin polymerization inhibitory activity is assessed using the Cytoskeleton Actin Polymerization kit (Cytoskeleton, Denver, Colo.). Briefly, […] (final concentration) of monomeric actin (1:10 pyrene labeled) is incubated on ice for 10 min with one of various concentrations of the test latrunculin compound. Samples are equilibrated 10 min in an ELISA plate reader (BioTek, VT), after which polymerization is induced by adding KCl, MgCl2, and ATP. Compounds are tested at 0.1, 0.5, 1.0, and 10 μM. The IC50 for each compound is calculated using GraphPad Prism 5.0.

MCF7 = assay: MTT proliferation assay, MCF7; assay type: cell-based, human; conditions: Homo sapiens, read-out: IC50 (μM) MCF7
From the text: (§1) The antiproliferative and anti-invasive activities of compounds 1-14 were quantified using MTT and cell invasion assay kits, respectively. Latrunculin A (compound 1) was used as a positive control in all biological assays, because it is known to be an actin polymerization inhibitor, with cytotoxic, antiproliferative, and anti-invasive activities. The 3-[4,5-dimethylthiazol-2-yl]-2,5-diphenyl tetrazolium bromide (MTT) assay selectively detects living cells in a quantitative, colorimetric fashion, based on a living cell's ability to reduce MTT to an insoluble, purple formazan dye. The MTT assay is routinely used to assess cytotoxicity and proliferation inhibition activities. The antiproliferative activities of compounds 1-14 were measured against two human mammary gland adenocarcinoma cell lines, MCF7 and MDA-MB-231, and against human prostate cancer cells PC-3 at five different doses (0.1, 0.5, 1, 10, and 50 μM). While many of the semisynthetic latrunculins had similar activity levels, some had greater activity than compound 1. […] Although the MDA-MB-231 cells were more resistant than MCF7 against most latrunculin derivatives tested, compound 14 had potent activity against both cell lines.
(§2) MTT Proliferation Assay. The growth of MCF7, MDA-MB-231, and PC-3 cancer cell lines was measured using an MTT kit (TACS™, TREVIGEN®, Inc.). Exponentially growing cells were plated in a 96-well plate at a density of 8×10^3 cells per well, and allowed to attach for 24 h. Complete growth medium was then replaced with 100 μL of RPMI serum-free medium containing various concentrations (50, 10, 1, 0.5, 0.1 μM) of the particular test compound. Culture continued at 37° C. under 5% CO2. After 72 h of culture, the cells were treated with MTT solution (10 μL/well) at 37° C. for 4 h. The color reaction was stopped by adding solubilization/stop solution (100 μL/well). Incubation continued at 37° C. continued to completely dissolve the formazan dye product. Absorbance of the samples was determined at 570 nm with an ELISA plate reader (BioTek, VT). The number of cells per well was calculated against a standard curve that had been prepared by plating various concentrations of cells, as determined by hemocytometer, at the start of each experiment. IC50 for each compound was calculated using a nonlinear regression curve fit of log concentration versus the number of cells/well, using GraphPad Prism 5.0 (GraphPad Software, La Jolla, Calif.).

PC-3 = assay: MTT proliferation assay, PC-3; assay type: cell-based, human; conditions: Homo sapiens, read-out: IC50 (μM) PC-3
From the text: as §1, §2

MDA-MB-231 = assay: MTT proliferation assay, MDA-MB-231; assay type: cell-based, human; conditions: Homo sapiens, read-out: IC50 (μM) MDA-MB-231
From the text: as §1, §2

MDA-MB-231 cells = assay: Cultrex BME cell invasion assay; assay type: cell-based, human; conditions: for anti-invasive activity compared with compound 1: 1 and 0.5 μM doses
Method: The anti-invasive activities of compounds 1-14 were measured using a 96 well basement membrane extract (BME) cell invasion assay kit against the highly metastatic MDA-MB-231 cells. This assay employs a simplified Boyden Chamber with a polyethylene terephthalate membrane (8 μm pore size). Cell invasion was quantified using calcein-acetomethylester (calcein-AM). Cells internalize calcein-AM; intracellular esterases then cleave the acetomethylester moiety to generate free calcein. Free calcein fluoresces brightly. This fluorescence may be used to quantify the number of cells that have invaded across the BME. To correlate the anti-invasive activities of the latrunculin A derivatives with their actin-disrupting activities, compounds 1-14 were each tested at non-toxic concentrations. […] Accordingly, all compounds were tested at 0.1, 0.5, and 1.0 μM. Compound 3 killed 17% of MDA-MB-231 cells at 1.0 μM, while the same dose of compound 3 inhibited 95% of MDA-MB-231 cells' invasion. […] The anti-invasive activities of compounds 1-14 are attributed primarily to the inhibition of actin polymerization, not to cell death per se.
Cultrex® Cell Invasion Assay. Anti-invasive activities were measured using Trevigen's Cultrex® Cell Invasion Assay as described in K. Tamilarasan et al., BMC Cell Biol. 2006, 7, 17-30; and P. Borghesani et al., Development. 2002, 6, 1435-1442. About 50 μL of basement membrane extract (BME) coat was added to each well. After incubation for 4 h at 37° C. under 5% CO2, 50,000 MDA-MB-231 cells in 50 μL of serum free RPMI medium were added to each well in the top chamber, along with the test compound at one of several concentrations (0.1, 0.5, 1 μM). About 150 μL of RPMI medium was added to the lower chamber in 10% FBS and penicillin/streptomycin, using fibronectin ([…]) and N-formyl-met-leu-phe (10 nM) as chemoattractants. Cells were allowed to migrate to the lower chamber at 37° C. under 5% CO2. After 24 h, the top and bottom chambers were aspirated and washed with the washing buffer that had been supplied with the kit. About 100 μL of Cell Dissociation Solution/Calcein-AM solution was added to the bottom chamber, and the cells were incubated at 37° C. under CO2 for 1 h. Briefly, the cells internalize calcein-AM, and then the intracellular esterases cleave the AM moiety to generate free calcein. […] The number of cells that had invaded through the BME coat was calculated using a standard curve.

[1] = 100 nM, compared to vehicle control (DMSO)
[2] = 1 μM, compared to vehicle control (DMSO)
[3] = MDA-MB-231, MTT, 72 h, mean ± SEM

SMILES	IC50 (pyrene-conjugated actin) [nM]	inhibition at 0.1 µM (pyrene-conjugated actin) [%]	inhibition at 1 µM (pyrene-conjugated actin) [%]	IC50 (MCF7; MCF7, 72 h) [µM]	IC50 (PC-3; PC-3, 72 h) [µM]	IC50 (MDA-MB-231; MDA-MB-231, 72 h) [µM]	inhibition at 0.1 µM (pyrene-conjugated actin; [1]) [%]	inhibition at 1 µM (pyrene-conjugated actin; [2]) [%]	IC50 (MCF7; MCF7, MTT, 72 h, mean ± SEM) [µM]	IC50 (PC-3; PC-3, MTT, 72 h) [µM]	IC50 (MDA-MB-231; [3]) [µM]	anti-invasive activity compared with compound 1 (MDA-MB-231 cells)	fold more active against cell invasion than latrunculin A (compound 1) (MDA-MB-231 cells; 0.5 μM) [fold]
C/C1=C/C(=O)O[C@@H]2C[C@@H](CC[C@H](C)/C=C\C=C\CC1)O[C@@](O)([C@@H]1CSC(=O)N1)C2 [Compound 1, Latrunculin A, reference compound]	284 ± 72	30	73	0.48 ± 0.04	3.9	4.19 ± 1.49	–	–	–	–	–	–	–
CO[C@]1([C@@H]2CSC(=O)N2)C[C@H]2C[C@@H](CC[C@H](C)/C=C\C=C\CC/C(C)=C\C(=O)O2)O1 [Compound 2, 17-O-Methyllatrunculin A]	9230 ± 825	–	–	–	–	–	6	21	10.2 ± 1.72	22.3	23.4 ± 0.85	–	–
C/C1=C/C(=O)O[C@@H]2C[C@@H](CC[C@H](C)/C=C\C=C\CC1)O[C@@](OC(=O)c1ccccc1)([C@@H]1CSC(=O)N1)C2 [Compound 4, 17-O-Benzoyllatrunculin A]	466 ± 51	–	–	–	–	–	23	67	0.52 ± 0.14	6.44	5.05 ± 0.36	equipotent to compound 1	–
CO[C@]1([C@@H]2CSC(=O)N2C)C[C@H]2C[C@@H](CC[C@H](C)/C=C\C=C\CC/C(C)=C\C(=O)O2)O1 [Compound 5, 17-O-Methyl-N-methyllatrunculin A]	> 10000	–	–	–	–	–	11	19	13.1 ± 3.69	19.4	19.9 ± 3.27	–	–
CCN1C(=O)SC[C@H]1[C@@]1(OC)C[C@H]2C[C@@H](CC[C@H](C)/C=C\C=C\CC/C(C)=C\C(=O)O2)O1 [Compound 6, 17-O-Methyl-N-ethyllatrunculin A]	> 10000	–	–	–	–	–	0	18	20.6 ± 2.77	29.3	> 50	–	–
CO[C@]1([C@@H]2CSC(=O)N2C2CCCC2)C[C@H]2C[C@@H](CC[C@H](C)/C=C\C=C\CC/C(C)=C\C(=O)O2)O1 [Compound 7, 17-O-Methyl-N-cyclopentanelatrunculin A]	1050 ± 271	–	–	–	–	–	20	49	5.3 ± 1.32	7.24	5.07 ± 0.72	–	–
CO[C@]1([C@@H]2CSC(=O)N2CCCO)C[C@H]2C[C@@H](CC[C@H](C)/C=C\C=C\CC/C(C)=C\C(=O)O2)O1 [Compound 8, 17-O-Methyl-N-(3′-hydroxypropyl)latrunculin A]	8550 ± 574	–	–	–	–	–	0	21	19.2 ± 3.91	34.2	> 50	–	–
CO[C@]1([C@@H]2CSC(=O)N2Cc2ccccc2)C[C@H]2C[C@@H](CC[C@H](C)/C=C\C=C\CC/C(C)=C\C(=O)O2)O1 [Compound 9, 17-O-Methyl-N-benzyllatrunculin A]	333 ± 76	–	–	–	–	–	33	67	0.78 ± 0.24	8.3	6.82 ± 1.41	–	–
CO[C@]1([C@@H]2CSC(=O)N2C(=O)c2ccccc2)C[C@H]2C[C@@H](CC[C@H](C)/C=C\C=C\CC/C(C)=C\C(=O)O2)O1 [Compound 10, 17-O-Methyl-N-benzoyllatrunculin A]	834 ± 109	–	–	–	–	–	17	53	0.55 ± 0.091	4.7	4.48 ± 1.79	–	–
CCN1C(=O)SC[C@H]1[C@@]1(O)C[C@H]2C[C@@H](CC[C@H](C)/C=C\C=C\CC/C(C)=C\C(=O)O2)O1 [Compound 12, N-Ethyllatrunculin A]	283 ± 51	–	–	–	–	–	32	70	0.95	5.72	7.19	equipotent to compound 1	–
C/C1=C/C(=O)O[C@@H]2C[C@@H](CC[C@H](C)/C=C\C=C\CC1)O[C@@](O)([C@@H]1CSC(=O)N1Cc1ccccc1)C2 [Compound 13, N-Benzyllatrunculin A]	445 ± 79	–	–	–	–	–	24	64	0.63	3.8	2.72	–	3.1
